Measurements taken from ChEMBL document CHEMBL3817783, “Identification of Potential Off-target Toxicity Liabilities of Catechol-O-methyltransferase Inhibitors by Differential Competition Capture Compound Mass Spectrometry” (J Med Chem, 2016).
Active and inactive are the calls of the source. The rule behind the calls is not given here.

Tests used:
[1] = biological target: Kynurenine--oxoglutarate transaminase 3 (Homo sapiens, UniProt Q6YP21); assay: Binding affinity to CCBL2 in human HepG2 assessed as intensity fold change of cumulated normalized intensity of protein between capture and competition assay at 100 uM after 1 hr in presence of active Tcp-CC-13 by differential competition capture compound mass spectrometry; assay type: ADME
Sequence of Kynurenine--oxoglutarate transaminase 3 (Q6YP21 whole entry): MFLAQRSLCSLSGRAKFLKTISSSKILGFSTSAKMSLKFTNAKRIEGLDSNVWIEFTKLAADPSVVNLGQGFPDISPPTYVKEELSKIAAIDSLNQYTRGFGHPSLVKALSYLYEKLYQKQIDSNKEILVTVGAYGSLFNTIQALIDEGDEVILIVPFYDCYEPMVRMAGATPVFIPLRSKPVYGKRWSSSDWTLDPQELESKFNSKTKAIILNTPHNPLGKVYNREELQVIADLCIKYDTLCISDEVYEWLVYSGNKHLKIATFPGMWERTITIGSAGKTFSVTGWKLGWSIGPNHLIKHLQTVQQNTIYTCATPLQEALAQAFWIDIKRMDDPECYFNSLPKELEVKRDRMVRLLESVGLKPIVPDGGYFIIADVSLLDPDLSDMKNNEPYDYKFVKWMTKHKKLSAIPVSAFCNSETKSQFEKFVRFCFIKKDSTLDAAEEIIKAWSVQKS

[2] = test system: HepG2; assay: Mitochondrial toxicity in human HepG2 cells assessed as mitochondrial membrane potential levels at 50 uM by TMRE-based mitochondria membrane potential assay relative to control; assay type: cell-based; conditions: hepg2, 50 µM
[3] = biological target: T1, 3-hydroxyisobutyryl-CoA hydrolase, mitochondrial (Homo sapiens) (UniProt Q6NVY1); assay: Binding affinity to human recombinant HIBCH assessed as intensity fold change of cumulated normalized intensity of protein between capture and competition assay at 100 uM after 1 hr in presence of inactive Tcp-CC-14 by differential competition capture compound mass spectrometry
T1 sequence (whole entry): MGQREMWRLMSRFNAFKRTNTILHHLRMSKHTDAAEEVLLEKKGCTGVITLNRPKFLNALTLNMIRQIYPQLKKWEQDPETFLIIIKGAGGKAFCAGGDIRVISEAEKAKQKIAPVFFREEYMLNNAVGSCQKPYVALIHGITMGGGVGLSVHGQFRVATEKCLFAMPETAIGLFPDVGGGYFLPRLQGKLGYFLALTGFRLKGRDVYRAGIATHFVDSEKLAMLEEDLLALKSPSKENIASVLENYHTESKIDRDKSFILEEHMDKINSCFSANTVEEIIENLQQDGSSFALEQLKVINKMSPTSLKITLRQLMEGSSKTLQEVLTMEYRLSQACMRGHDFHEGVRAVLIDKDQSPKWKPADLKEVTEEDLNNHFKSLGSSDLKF

[4] = test system: HepG2; assay: Mitochondrial toxicity in human HepG2 cells assessed as mitochondrial membrane potential levels at 100 uM by TMRE-based mitochondria membrane potential assay relative to control; assay type: cell-based; conditions: hepg2, 100 µM
[5] = biological target: T1, 3-hydroxyisobutyryl-CoA hydrolase, mitochondrial (Homo sapiens); assay: Binding affinity to human recombinant HIBCH assessed as intensity fold change of cumulated normalized intensity of protein between capture and competition assay at 100 uM after 1 hr in presence of active Tcp-CC-13 by differential competition capture compound mass spectrometry
[6] = biological target: T2, Glutaryl-CoA dehydrogenase, mitochondrial (Homo sapiens, UniProt Q92947); assay: Binding affinity to GCDH in human HepG2 assessed as intensity fold change of cumulated normalized intensity of protein between capture and competition assay at 100 uM after 1 hr in presence of active Tcp-CC-13 by differential competition capture compound mass spectrometry; assay type: ADME
T2 sequence (Q92947 whole entry): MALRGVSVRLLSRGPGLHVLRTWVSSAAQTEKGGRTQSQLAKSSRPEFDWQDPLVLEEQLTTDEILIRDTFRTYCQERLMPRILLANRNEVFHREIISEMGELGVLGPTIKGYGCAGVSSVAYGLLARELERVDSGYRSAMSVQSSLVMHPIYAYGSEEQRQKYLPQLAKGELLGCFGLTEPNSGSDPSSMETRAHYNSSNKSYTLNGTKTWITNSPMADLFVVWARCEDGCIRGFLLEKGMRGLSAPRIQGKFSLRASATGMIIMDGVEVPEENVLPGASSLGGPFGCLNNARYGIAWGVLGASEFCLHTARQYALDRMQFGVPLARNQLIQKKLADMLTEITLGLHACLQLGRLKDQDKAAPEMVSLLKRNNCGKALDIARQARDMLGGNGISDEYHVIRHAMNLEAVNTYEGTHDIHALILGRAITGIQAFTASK

[7] = biological target: Aldo-keto reductase family 1 member B10 (Homo sapiens, UniProt O60218); assay: Binding affinity to AKR1B10 in human HepG2 assessed as intensity fold change of cumulated normalized intensity of protein between capture and competition assay at 100 uM after 1 hr in presence of inactive Tcp-CC 14 by differential competition capture compound mass spectrometry; assay type: ADME
Sequence of Aldo-keto reductase family 1 member B10 (O60218 whole entry): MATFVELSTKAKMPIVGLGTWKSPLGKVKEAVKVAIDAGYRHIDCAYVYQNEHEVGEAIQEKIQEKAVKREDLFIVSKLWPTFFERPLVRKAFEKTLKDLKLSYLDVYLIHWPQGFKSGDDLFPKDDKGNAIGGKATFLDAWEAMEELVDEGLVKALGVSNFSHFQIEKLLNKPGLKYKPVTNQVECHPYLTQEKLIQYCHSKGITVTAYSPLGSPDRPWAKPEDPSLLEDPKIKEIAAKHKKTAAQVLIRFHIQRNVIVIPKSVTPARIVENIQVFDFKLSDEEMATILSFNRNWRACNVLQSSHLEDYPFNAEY

[8] = biological target: T3, Pyridoxal kinase (Homo sapiens, UniProt O00764); assay: Binding affinity to PDXK in human HepG2 assessed as intensity fold change of cumulated normalized intensity of protein between capture and competition assay at 100 uM after 1 hr in presence of inactive Tcp-CC 14 by differential competition capture compound mass spectrometry; assay type: ADME
T3 sequence (O00764 whole entry): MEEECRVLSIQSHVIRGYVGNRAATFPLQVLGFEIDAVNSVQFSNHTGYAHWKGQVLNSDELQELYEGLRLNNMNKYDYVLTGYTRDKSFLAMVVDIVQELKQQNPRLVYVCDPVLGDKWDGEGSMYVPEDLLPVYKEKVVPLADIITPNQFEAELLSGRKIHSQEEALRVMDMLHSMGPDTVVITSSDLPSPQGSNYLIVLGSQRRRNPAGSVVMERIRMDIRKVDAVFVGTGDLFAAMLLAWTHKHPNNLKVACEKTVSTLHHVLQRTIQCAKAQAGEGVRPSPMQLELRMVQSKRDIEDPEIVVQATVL

[9] = biological target: T4, Acireductone dioxygenase (Homo sapiens, UniProt Q9BV57); assay: Binding affinity to ADL1 in human HepG2 assessed as intensity fold change of cumulated normalized intensity of protein between capture and competition assay at 100 uM after 1 hr in presence of active Tcp-CC-13 by differential competition capture compound mass spectrometry; assay type: ADME
T4 sequence (Q9BV57 whole entry): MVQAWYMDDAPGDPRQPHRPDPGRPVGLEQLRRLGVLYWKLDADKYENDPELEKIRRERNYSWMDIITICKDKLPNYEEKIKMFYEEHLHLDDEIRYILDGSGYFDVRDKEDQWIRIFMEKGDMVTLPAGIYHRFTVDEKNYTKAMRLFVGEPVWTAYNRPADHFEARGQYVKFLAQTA

[10] = biological target: T5, Protein NipSnap homolog 3A (Homo sapiens, UniProt Q9UFN0); assay: Binding affinity to NIPSNAP3A in human HepG2 assessed as intensity fold change of cumulated normalized intensity of protein between capture and competition assay at 100 uM after 1 hr in presence of inactive Tcp-CC 14 by differential competition capture compound mass spectrometry; assay type: ADME
T5 sequence (Q9UFN0 whole entry): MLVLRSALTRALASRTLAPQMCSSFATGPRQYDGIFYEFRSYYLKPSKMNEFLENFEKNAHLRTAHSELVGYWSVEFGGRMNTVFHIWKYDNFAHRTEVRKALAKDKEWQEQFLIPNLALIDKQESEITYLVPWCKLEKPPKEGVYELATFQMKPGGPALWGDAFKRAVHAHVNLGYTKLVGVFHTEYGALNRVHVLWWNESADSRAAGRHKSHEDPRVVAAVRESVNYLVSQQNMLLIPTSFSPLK

[11] = biological target: T6, Catechol O-methyltransferase (Homo sapiens) (UniProt P21964); assay: (§1) Inhibition of human recombinant His-tagged soluble COMT expressed in Escherichia coli BL21 using aesculetin as substrate after 60 mins by microplate assay in presence of SAM
T6 sequence (whole entry): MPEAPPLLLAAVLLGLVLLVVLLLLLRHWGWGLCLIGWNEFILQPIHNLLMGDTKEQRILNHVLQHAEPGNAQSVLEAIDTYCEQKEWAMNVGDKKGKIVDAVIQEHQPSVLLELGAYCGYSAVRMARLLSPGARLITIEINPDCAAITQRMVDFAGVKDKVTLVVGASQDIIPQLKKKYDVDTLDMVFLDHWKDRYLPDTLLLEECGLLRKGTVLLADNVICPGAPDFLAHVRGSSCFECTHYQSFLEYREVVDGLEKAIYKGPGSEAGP

[12] = biological target: T7, Catechol O-methyltransferase (Homo sapiens, UniProt P21964); assay: as §1
T7 sequence (P21964 whole entry): T6 sequence (whole entry)

Row | fold change (FC) [10] | inhibition [11] | IC50 [12] [nM] | SMILES | fold change (FC) [1] | Activity [2] [%] | Activity [3] | Activity [4] [%] | fold change (FC) [5] | fold change (FC) [6] | fold change (FC) [7] | fold change (FC) [8] | fold change (FC) [9]
1 | – | inactive | – | Cc1ccc(C(=O)c2cc(OCCCCNC(=O)C[C@H](NC(=O)c3ccc(N=[N+]=[N-])cc3)C(=O)NCCCOCCOCCOCCCNC(=O)CCCC[C@@H]3SC[C@@H]4NC(=O)N[C@@H]43)c(O)c([N+](=O)[O-])c2)cc1 | – | – | – | – | – | – | – | – | –
2 | – | – | 648 | CN(Cc1ccc(C(=O)c2cc(O)c(O)c([N+](=O)[O-])c2)cc1)C(=O)CCCCCNC(=O)C[C@H](NC(=O)c1ccc(N=[N+]=[N-])cc1)C(=O)NCCCOCCOCCOCCCNC(=O)CCCC[C@@H]1SC[C@@H]2NC(=O)N[C@@H]21 | – | – | – | – | – | – | – | – | –
3 | 7.5 | – | – | CCN(CC)C(=O)c1cc2cc(O)c(O)c([N+](=O)[O-])c2cc1C(=O)N(CC)CC | 3.05 | < 20 | inactive | 0 | 5.35 | 5.9 | 4.7 | 16 | 3.67

The next lines start with the compound.

Row | SMILES | fold change (FC) [10] | inhibition [11] | IC50 [12] [nM] | fold change (FC) [1] | Activity [2] [%] | Activity [3] | Activity [4] [%] | fold change (FC) [5] | fold change (FC) [6] | fold change (FC) [7] | fold change (FC) [8] | fold change (FC) [9]
4 | Cc1ccc(C(=O)c2cc(O)c(O)c([N+](=O)[O-])c2)cc1 [TOLCAPONE] | – | – | – | 4.12 | < 20 | Active | 0 | 14.2 | 5.82 | 2.3 | 2.4 | 7.59
5 | CCN(CC)C(=O)/C(C#N)=C/c1cc(O)c(O)c([N+](=O)[O-])c1 [ENTACAPONE] | 2.11 | – | – | 8.63 | > 50 | – | 40 | 1.04 | 6.09 | 2.98 | 3.46 | 2.38
6 | CCN1C(=O)S/C(=C/c2cc(O)c(O)c([N+](=O)[O-])c2)C1=O | 3 | – | 179 | 3.4 | > 50 | – | – | 1 | 6.34 | 3.1 | 24.9 | 4.29
